# Test results taken from patent publication US8288382B2, “Diaminothiazoles useful as Axl inhibitors” (Rigel Pharmaceuticals, Inc., priority 2006, dated 2012).
# Molecular target: T1, Axl (Homo sapiens, UniProt P30530)
# T1 construct: endogenous in cells; host or cells: HeLa cells
# T1 sequence (P30530 26-894): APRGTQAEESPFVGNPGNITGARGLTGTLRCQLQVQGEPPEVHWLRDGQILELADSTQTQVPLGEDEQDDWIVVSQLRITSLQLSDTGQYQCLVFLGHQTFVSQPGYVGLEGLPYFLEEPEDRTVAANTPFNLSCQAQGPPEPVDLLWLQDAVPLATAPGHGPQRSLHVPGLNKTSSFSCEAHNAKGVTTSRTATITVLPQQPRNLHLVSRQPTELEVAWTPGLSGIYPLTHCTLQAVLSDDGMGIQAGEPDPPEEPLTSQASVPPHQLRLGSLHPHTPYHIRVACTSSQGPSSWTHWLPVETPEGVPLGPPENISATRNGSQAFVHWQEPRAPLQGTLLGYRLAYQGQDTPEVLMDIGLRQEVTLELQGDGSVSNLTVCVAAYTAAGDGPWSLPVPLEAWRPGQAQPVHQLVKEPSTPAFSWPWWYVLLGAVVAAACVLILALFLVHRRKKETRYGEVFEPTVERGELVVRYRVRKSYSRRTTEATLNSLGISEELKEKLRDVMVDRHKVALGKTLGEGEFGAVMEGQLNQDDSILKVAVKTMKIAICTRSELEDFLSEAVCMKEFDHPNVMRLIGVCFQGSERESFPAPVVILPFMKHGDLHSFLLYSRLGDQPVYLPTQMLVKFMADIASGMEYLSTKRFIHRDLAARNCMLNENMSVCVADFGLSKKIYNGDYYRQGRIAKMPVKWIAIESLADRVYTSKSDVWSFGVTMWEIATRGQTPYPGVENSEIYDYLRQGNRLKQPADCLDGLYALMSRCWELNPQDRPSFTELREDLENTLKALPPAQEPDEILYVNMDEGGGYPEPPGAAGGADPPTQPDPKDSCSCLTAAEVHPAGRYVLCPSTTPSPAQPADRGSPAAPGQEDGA
# Assay: Phospho-Akt In-Cell Western Assay (inhibition of Axl activity)
# Format: cell-based
# Details: Hela cells, stimulated by Axl-antibody cross-linking, phospho-Akt chemiluminescence normalized to relative cell number
# Description: The compounds of the invention were tested in the following assay for their ability to inhibit Axl activity.
# Phospho-Akt In-Cell Western Assay
# • Cell culture plate: 96 well assay plate (Corning 3610), white, clear bottom, tissue-culture treated. • Cells: Hela cells. • Starvation medium: For Axl stimulation: 0.5% FCS (fetal calf serum) in DMEM, plus Axl/Fc (extracellular domain of AXL fused to imunoglobulin Fc region) (R&D, 154-AL) 500 ng/mL. • For EGF (epidermal growth factor) stimulation: 0.5% FCS in DMEM (Dulbecco's modified Eagles medium). • Poly-L-Lysine 0.01% solution (the working solution): 10 μg/ml, dilute In PBS (phosphate buffered saline). • Axl antibody cross-linking: • 1st: Mouse anti-Axl (R&D, MAB154). • 2nd: Biotin-SP-conjugated AffiniPure goat anti-mouse IgG (H+L) (Jackson ImmunoResearch #115-065-003). • Fixing buffer: 4% formaldehyde in PBS. • Wash buffer: 0.1% TritonX-100 in PBS. • Quenching buffer: 3% H2O2, 0.1% Azide in wash buffer, Azide and hydrogen peroxide (H2O2) are added fresh. • Blocking buffer: 5% BSA in TBST (tris buffered saline plus 0.1% Tween 20). • Primary antibody: Rabbit anti-human Phospho-Akt antibody (Cell Signaling 9271): 1×250 diluted in blocking buffer. • Secondary antibody: HRP (horse radish peroxidase)-conjugated Goat anti-Rabbit secondary, stock solution: Jackson ImmunoResearch (Goat anti-Rabbit HRP, #111-035-144) 1:1 diluted in glycerol, store at −20° C. The working solution: 1×2000 dilution of stock in blocking buffer. • Chemiluminescent working solution (Pierce, 37030): SuperSignal ELISA (enzyme linked immunosorbant assay) Pico Chemiluminescent substrate. • Crystal Violet solution: Stock: 2.5% Crystal violet in methanol, filtered and kept at ambient temperature. The working solution: dilute the stock 1:20 with PBS immediately before use. • 10% SDS: working solution: 5% SDS (sodium dodecylsulfate), diluted in PBS Methods: Day 1:
# A 96 well TC (tissue culture treated) plate was coated with 10 μg/mL poly-L-Lysine at 37° C. for 30 min, washed twice with PBS, and air-dried for 5 minutes before cells were added. Hela cells were seeded at 10,000 cells/well and the cells were starved in 100 μL starvation medium containing Axl/Fc for 24 hrs.
# The cells were pre-treated with test compounds by adding 100 μL of 2× test compound to the starvation medium on the cells. The cells were incubated at 37° C. for 1 hr before stimulation.
# The cells were stimulated by Axl-antibody cross-linking as follows: A 5× 1st/2nd Axl antibody mixture was made (37.5 μg/mL 1st/100 μg/mL 2nd) in starvation medium and nutated at 4° C. with thorough mixing for 1-2 hours for clustering. The resulting mix was warmed to 37° C. 50 μL of 5× Axl 1st/2nd of antibody cluster was added to the cells and the cells were incubated at 37° C. for 5 min.
# After 5 minutes stimulation, the plate was flicked to remove medium and the plate was tapped onto paper towels. Formaldehyde (4.0% in PBS, 100 μL) was added to fix the cells and the cells were incubated at ambient temperature for 20 min without shaking.
# The cells were washed with a plate washer buffer to remove the formaldehyde solution. The plate was flicked to removed excess wash buffer and tapped onto paper towels. Quenching buffer (100 μL) was added to each well and the cells were incubated at ambient temperature for 20 minutes without shaking.
# The cells were washed with a plate washer buffer to remove the quenching buffer. Blocking buffer (100 μL) was added and the cells were incubated at ambient temperature for at least an hour with gentle shaking.
# The cells were washed with a plate washer buffer and diluted primary antibody (50 μL) was added to each well (blocking buffer was added to the negative control wells instead). The plates were incubated overnight at 4° C. with gentle shaking.
# The wash buffer was removed, diluted secondary antibody (100 μL) was added, and the cells were incubated at ambient temperature for 1 hour with gentle shaking. […]
row,Compound,IC50
1,"COc1cc2ncnc(-c3sc(Nc4ccc(OCCN5CCCC5)cc4)nc3N)c2cc1OC [Compound 1, 5-(6,7-dimethoxyquinazolin-4-yl)-N^2-(4-(2-(pyrrolidin-1-yl)ethoxy)phenyl)thiazole-2,4-diamine]",1 to 10 µM
2,"COc1ccc(Nc2nc(N)c(-c3ccccn3)s2)cc1 [Compound 2, N^2-(4-methoxyphenyl)-5-(pyridin-2-yl)thiazole-2,4-diamine]",> 20 µM
3,"COc1cc(Nc2nc(N)c(-c3cnc4ccccc4n3)s2)cc(OC)c1OC [Compound 3, 5-(quinoxalin-2-yl)-N^2-(3,4,5-trimethoxyphenyl)thiazole-2,4-diamine]",1 to 10 µM
4,"Nc1nc(Nc2ccc(OCCN3CCCC3)cc2)sc1-c1cnc2ccccc2n1 [Compound 4, N^2-(4-(2-(pyrrolidin-1-yl)ethoxy)phenyl)-5-(quinoxalin-2-yl)thiazole-2,4-diamine]",1 to 10 µM
5,"Nc1nc(Nc2ccc(OCCN3CCCC3)cc2)sc1-c1ncnc2ccccc12 [Compound 5, N^2-(4-(2-(pyrrolidin-1-yl)ethoxy)phenyl)-5-(quinazolin-4-yl)thiazole-2,4-diamine]",1 to 10 µM
6,"COc1cc(Nc2nc(N)c(-c3ncnc4ccccc34)s2)cc(OC)c1OC [Compound 6, 5-(quinazolin-4-yl)-N^2-(3,4,5-trimethoxyphenyl)thiazole-2,4-diamine]",> 20 µM
7,"Nc1nc(Nc2ccc(N3CCOCC3)cc2)sc1-c1nccc2ccccc12 [Compound 7, 5-(isoquinolin-1-yl)-N^2-(4-morpholinophenyl)thiazole-2,4-diamine]",10 to 20 µM
8,"Nc1nc(Nc2ccc(OCCN3CCCC3)cc2)sc1-c1nccc2ccccc12 [Compound 8, 5-(isoquinolin-1-yl)-N^2-(4-(2-(pyrrolidin-1-yl)ethoxy)phenyl)thiazole-2,4-diamine]",> 20 µM
9,"Nc1nc(Nc2ccc(OCCN3CCCC3)cc2)sc1-c1nc2ccccc2s1 [Compound 9, 5-(benzo[d]thiazol-2-yl)-N^2-(4-(2-(pyrrolidin-1-yl)ethoxy)phenyl)thiazole-2,4-diamine]",1 to 10 µM
10,"COc1cc2ncnc(-c3sc(Nc4ccc(N5CCOCC5)cc4)nc3N)c2cc1OC [Compound 10, 5-(6,7-dimethoxyquinazolin-4-yl)-N^2-(4-morpholinophenyl)thiazole-2,4-diamine]",1 to 10 µM
11,"COc1cc2ncnc(-c3sc(Nc4ccc(N5CCN(C)CC5)cc4)nc3N)c2cc1OC [Compound 11, 5-(6,7-dimethoxyquinazolin-4-yl)-N^2-(4-(4-methylpiperazin-1-yl)phenyl)thiazole-2,4-diamine]",1 to 10 µM
12,"Nc1nc(Nc2ccc(N3CCN(C4CC5CCC4C5)CC3)cc2)sc1-c1ncnc2ccsc12 (centres unmarked) [Compound 12, N^2-(4-(4-(bicyclo[2.2.1]heptan-2-yl)piperazin-1-yl)phenyl)-5-(thieno[3,2-d]pyrimidin-4-yl)thiazole-2,4-diamine]",1 to 10 µM
13,"COc1cc2ncnc(-c3sc(Nc4ccc(N5CCN(C6CC7CCC6C7)CC5)cc4)nc3N)c2cc1OC (centres unmarked) [Compound 13, N^2-(4-(4-(bicyclo[2.2.1]heptan-2-yl)piperazin-1-yl)phenyl)-5-(6,7-dimethoxyquinazolin-4-yl)thiazole-2,4-diamine]",> 20 µM
14,"COc1cc2ncnc(-c3sc(Nc4ccc(OCCN5CCCC5)c(Cl)c4)nc3N)c2cc1OC [Compound 14, N^2-(3-chloro-4-(2-(pyrrolidin-1-yl)ethoxy)phenyl)-5-(6,7-dimethoxyquinazolin-4-yl)thiazole-2,4-diamine]",1 to 10 µM
